We go through nine compounds from patent US20120045522A1 (priority 2010, published 2012).

One series relates to Phytophthora infestans. It counts as in vivo. To be noted: hydrazone 50 ppm plus 50 μM CuCl2.2H2O, applied 24 h before inoculation, assessed 7 days after inoculation, tomato plants.
For series [1], the system named is Leptosphaeria nodorum (LEPTNO). Put plainly: In vitro fungitoxicity (growth inhibition) assay in copper-minus / copper-plus liquid medium. It counts as cell-based. To be noted: for inhibition of growth at 0.05 µg/mL: Parastagonospora nodorum, copper-minus medium, light scattering, read-out: LEPTNO % Inhn. Minus Copper Observed; for inhibition of growth at 0.05 µg/mL / LEPTNO % Inhn. Plus Copper Observed: test compound at 0.05 μg/mL, 72 h at 25° C.; for LEPTNO % Inhn. Plus Copper Observed: copper-plus medium (CuCl2.2H2O). On the procedure:
In vitro fungitoxicity assays against Leptosphaeria nodorum (LEPTNO) were conducted using the liquid growth medium described by Coursen and Sisler (American Journal of Botany 1960, 47, 541-549) except that copper micronutrient, normally included as CuSO4, was omitted. The medium, termed “copper-minus,” was prepared by dissolving 10 g glucose, 1.5 g K2HPO4, 2 g KH2PO4 and 1 g (NH4)2SO4 in 1 liter of deionized water and treating the solution with 0.5 g Chelex 100 resin (Bio-Rad Analytical grade, 50-100 mesh, sodium form, cat#142-2822) by stirring at room temperature for 1 h. MgSO4.7H2O (0.5 g) was added, and stirring was continued for a further hour. Trace elements (minus CuSO4), and vitamins described by Coursen and Sisler were added from concentrated stock solutions and the entire medium was sterilized by filtration. Medium containing copper was prepared by adding CuCl2.2H2O to the copper-minus medium at 20 μM. Test compounds were dissolved in dimethylsulfoxide (DMSO) at 10 μg/mL and 1 μL aliquots were added to two wells of flat-bottomed 96-well microtiter plates. Copper-minus medium (100 μL) was added to one of the wells and copper-plus medium to the second well. Control wells, included for each medium, received 1 μL DMSO and 100 μL of medium.
LEPTNO was grown on potato dextrose agar in 9 cm diameter petri dishes for 7 days. Sterile deionized water (20 mL) was added to a culture plate and spores suspended by scraping the surface gently with a sterile plastic loop. The resulting suspension was filtered through a double layer of sterile cheesecloth. Filtered spore suspension (5 mL) was centrifuged in a bench centrifuge at 2000 rpm for 2 min. The resulting spore pellet was resuspended in 10 mL sterile deionized water (which had been treated with Chelex 100 resin using 0.5 g resin per liter of water by stirring at room temperature for 1 h), and recentrifuged. The spores were resuspended in copper-minus medium, and the suspension adjusted to 2×10^5 spores per mL. Microtiter plates were inoculated with 100 μL of this spore suspension and the plates incubated at 25° C. for 72 h before assessing fungal growth by measuring light scattering in a NepheloStar plate reader. Growth inhibition was determined by comparing growth in the presence of test compound with growth in control wells lacking test compound.
Results for growth inhibition by test compounds at 0.05 μg/mL in copper-plus medium (% Inhn. Plus Copper Observed) were compared with predicted values (% Inhn. Plus Copper Predicted) that were calculated using the formula set forth by S. R. Colby in Weeds 1967, 15, 20-22 based on results obtained for the same compounds in copper-minus medium (% Inhn. Minus Copper Observed) and the inhibition attributed to copper chloride alone, as determined by comparing growth in copper-minus and copper-plus media without any test compound across experiments. Results illustrate that hydrazones and copper produce a synergistic fungitoxic effect towards LEPTNO.

In general, melting point refers to the temperature of the solid-liquid transition. The compound `Cc1ccc(C(=O)N/N=C2\CCc3c(Cl)cc(Cl)c(O)c32)cc1` [Compound 1, 4-Methylbenzoic acid [4,6-dichloro-7-hydroxy-indanylidine]hydrazide] gave a melting point of 218 to 222 °C. The TLB % control in the series on Phytophthora infestans came out at 78%. Moreover, in series [1], the inhibition of growth at 0.05 µg/mL was 15.2% and the “LEPTNO % Inhn. Plus Copper Observed” value was found to be 96.8%.

In the case of `O=C(N/N=C1\CCc2c(Cl)cc(Cl)c(O)c21)c1ccc(Cl)cc1` [Compound 2], the melting point lay within 252 to 255 °C. In addition, the TLB % control in the series with Phytophthora infestans was 78%. In series [1], the inhibition of growth at 0.05 µg/mL came to 16.7% and the “LEPTNO % Inhn. Plus Copper Observed” value is given as 96.8%.

Consider `O=C(N/N=C1\CCc2c(Cl)cc(Cl)c(O)c21)c1ccccc1O` [Compound 3], for which the melting point was in the range of 285 to 290 °C. For the same compound, in the series with Phytophthora infestans, the TLB % control was determined as 55%. Further, in series [1], the inhibition of growth at 0.05 µg/mL stood at 24.9% and the “LEPTNO % Inhn. Plus Copper Observed” value was determined as 97.1%.

`COc1ccc(C(=O)N/N=C2\CCc3c(Cl)cc(Cl)c(O)c32)cc1` [Compound 4] yielded a melting point of 230 to 233 °C. The TLB % control with Phytophthora infestans turned out to be 64%. Also, in series [1], the inhibition of growth at 0.05 µg/mL turned out to be 3.5% and the “LEPTNO % Inhn. Plus Copper Observed” value is 96.6%.

In turn, `O=C(N/N=C1\CCc2c(Cl)cc(Cl)c(O)c21)c1ccc(C(F)(F)F)cc1` [Compound 5] gave a melting point of 245 to 248 °C. Moreover, the TLB % control with Phytophthora infestans came to 53%. For the same compound, in series [1], the inhibition of growth at 0.05 µg/mL came to 20.7% and the “LEPTNO % Inhn. Plus Copper Observed” value is listed as 97.2%.

Consider `O=C(N/N=C1\CCc2c(Cl)cc(Cl)c(O)c21)c1ccccc1` [Compound 6], for which the melting point lay in the range of 243 to 245 °C. Further, in the series with Phytophthora infestans, the TLB % control was determined as 95%. Also, in series [1], the inhibition of growth at 0.05 µg/mL was 23.1% and the “LEPTNO % Inhn. Plus Copper Observed” value came out at 94.1%.

Regarding `O=C(N/N=C1\CCc2cccc(O)c21)c1ccccc1` [Compound 7], the melting point is 192 to 194 °C. Besides, in the series on Phytophthora infestans, the TLB % control is listed as 61%. For the same compound, in series [1], the inhibition of growth at 0.05 µg/mL turned out to be 0% and the “LEPTNO % Inhn. Plus Copper Observed” value was found to be 95.3%.

As to `Cc1ccc(C(=O)N/N=C2\CCc3c(Cl)cc(Cl)c(O)c32)c(O)c1` [Compound 8], the melting point fell in the range of 284 to 288 °C. In addition, the TLB % control in the series with Phytophthora infestans was found to be 69%. Also, in series [1], the inhibition of growth at 0.05 µg/mL came out at 0% and the “LEPTNO % Inhn. Plus Copper Observed” value was 96.9%.

Take `O.O.[Cl][Cu][Cl]` [CuCl2, CuCl2.2H2O, reference compound]: the “LEPTNO % inhibition attributed to copper chloride alone” value in series [1] (CuCl2 10 μM, no test compound, growth in copper-plus vs copper-minus medium across experiments) amounted to 13.2%.
